Reference: paper PMC7385629 (Scientific Reports, 2020)

Columns and labels:
CTAT = target: T1, CTAT (Leishmania donovani, UniProt A0A3Q8INT3); assay: UV absorption scan […]-500 nm, aldimine bond formation; assay type: binding; conditions: 4 mM PLP; 0.5 and 1 mg/ml protein; 25 °C; 30 min; covalent, internal aldimine at K286
T1 construct: gene LdCL_360030600; C-terminal 60 residues (180 bp) deleted; printed 389 aa (1,167 bp; end may be 388); two His-tags (N and C) from pET28a(+), about 45 kDa on gel, E. coli BL21, Ni-NTA
T1 sequence (A0A3Q8INT3 entry or part of it): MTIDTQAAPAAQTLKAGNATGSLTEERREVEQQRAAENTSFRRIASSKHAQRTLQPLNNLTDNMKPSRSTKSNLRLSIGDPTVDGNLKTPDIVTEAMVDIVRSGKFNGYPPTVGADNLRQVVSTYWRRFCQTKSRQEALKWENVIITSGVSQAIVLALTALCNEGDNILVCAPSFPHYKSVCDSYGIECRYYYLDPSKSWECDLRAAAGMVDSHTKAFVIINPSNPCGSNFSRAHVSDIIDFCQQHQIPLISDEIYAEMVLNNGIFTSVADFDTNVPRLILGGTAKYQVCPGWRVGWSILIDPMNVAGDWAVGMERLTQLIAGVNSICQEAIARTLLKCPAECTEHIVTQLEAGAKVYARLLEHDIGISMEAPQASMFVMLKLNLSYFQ

NTAT [1] = target: T2, NTAT (Leishmania donovani, UniProt A0A3Q8INT3); assay: as above; assay type: binding; set-up: gene LdCL_360030600; N-terminal 60 residues (180 bp) deleted, starts T61, runs to native C-terminus; His-tag from pET28a(+), E. coli BL21, Ni-NTA; parent gene 1,347 bp; conditions: 4 mM PLP; 0.5 and 1 mg/ml protein; 25 °C; 30 min; covalent, internal aldimine at K286
T2 sequence (A0A3Q8INT3 entry or part of it): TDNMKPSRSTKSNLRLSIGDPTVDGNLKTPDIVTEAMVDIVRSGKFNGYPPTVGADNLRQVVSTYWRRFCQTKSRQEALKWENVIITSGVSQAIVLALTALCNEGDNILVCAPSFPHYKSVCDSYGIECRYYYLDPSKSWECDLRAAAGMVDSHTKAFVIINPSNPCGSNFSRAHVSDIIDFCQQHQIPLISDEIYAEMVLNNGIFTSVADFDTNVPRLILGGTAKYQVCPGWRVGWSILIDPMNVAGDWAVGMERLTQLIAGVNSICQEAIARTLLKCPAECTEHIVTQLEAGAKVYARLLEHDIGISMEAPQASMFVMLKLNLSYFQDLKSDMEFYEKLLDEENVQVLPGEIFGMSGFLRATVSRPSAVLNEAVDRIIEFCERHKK

NTAT [2] = target: T2, NTAT; set-up: gene LdCL_360030600; conditions: co-substrate sodium pyruvate 100 mM; 30 µM PLP; pH 8; 37 °C; tyrosine 0-7 mM; apparent

| Structure (SMILES) | UV absorption scan 300-500 nm, aldimine bond formation (CTAT) | UV absorption scan 300-500 nm, aldimine bond formation (NTAT [1]) | Km (NTAT [2]) [mM] |
| --- | --- | --- | --- |
| Cc1ncc(COP(=O)(O)O)c(C=O)c1O [PLP] | In CTAT, the PLP binding was higher than NTAT | The increase in the concentration of NTAT or CTAT bound more PLP and formed aldimine bonds |  |
| N[C@@H](Cc1ccc(O)cc1)C(=O)O [tyrosine] |  |  | 3.47 ± 0.796 |
